{"source": "PubChem BioAssay AID330", "about": "(DTP/NCI, 2004)", "test_system": "P388 leukemia ip, CD2F1 mice, survival T/C", "test": "NCI In Vivo Anticancer Drug Screen. Data for tumor model P388 Leukemia (intraperitoneal) in CD2F1 (CDF1) mice", "conditions": "endpoint: median survival time, higher = longer survival", "in_short": "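Mice carrying the transplanted tumor received test compound or vehicle. Survival was recorded in each group, and the value is the treated-group measurement divided by that of the vehicle-treated control group.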", "note": "“And” between values parts separate entries of the source, which are not always exact repeats. Equal values may be shown once. Toxic doses and inconclusive results are not listed.", "data": [{"smiles": "CO[C@@]12[C@H](COC(N)=O)C3=C(C(=O)C(C)=C(N)C3=O)N1C[C@@H]1N[C@@H]12", "values": [{"measurement": "T/C", "setting": "dose: 0.25 mg/kg/injection, schedule: Q01DX009 (ip), vehicle: saline with Tween-80", "value": "160 % of control and 166 % of control"}, {"measurement": "T/C", "setting": "dose: 0.5 mg/kg/injection, schedule: Q01DX009 (ip), vehicle: saline with Tween-80", "value": "150 % of control and 157 % of control and 210 % of control"}, {"measurement": "T/C", "setting": "dose: 0.5 mg/kg/injection, schedule: Q04DX003 (ip), vehicle: saline", "value": "112 % of control"}, {"measurement": "T/C", "setting": "dose: 0.65 mg/kg/injection, schedule: Q04DX002 (ip), vehicle: saline", "value": "160 % of control"}, {"measurement": "T/C", "setting": "dose: 0.75 mg/kg/injection, schedule: Q04DX003 (ip), vehicle: saline", "value": "150 % of control and 163 % of control"}, {"measurement": "T/C", "setting": "dose: 0.75 mg/kg/injection, schedule: Q04DX003 (ip), vehicle: water", "value": "170 % of control"}, {"measurement": "T/C", "setting": "dose: 0.78 mg/kg/injection, schedule: Q04DX003 (ip), vehicle: saline", "value": "152 % of control and 153 % of control"}, {"measurement": "T/C", "setting": "dose: 0.97 mg/kg/injection, schedule: Q04DX003 (ip), vehicle: saline", "value": "150 % of control"}, {"measurement": "T/C", "setting": "dose: 1.0 mg/kg/injection, schedule: Q01DX009 (ip), vehicle: saline with Tween-80", "value": "166 % of control and 169 % of control"}, {"measurement": "T/C", "setting": "dose: 1.08 mg/kg/injection, schedule: Q04DX002 (ip), vehicle: saline", "value": "164 % of control"}, {"measurement": "T/C", "setting": "dose: 1.1 mg/kg/injection, schedule: Q04DX003 (ip), vehicle: water", "value": "159 % of control"}, {"measurement": "T/C", "setting": "dose: 1.3 mg/kg/injection, schedule: Q04DX002 (ip), vehicle: saline", "value": "163 % of control"}, {"measurement": "T/C", "setting": "dose: 1.3 mg/kg/injection, schedule: Q04DX003 (ip), vehicle: saline", "value": "174 % of control and 180 % of control"}, {"measurement": "T/C", "setting": "dose: 1.5 mg/kg/injection, schedule: Q04DX003 (ip), vehicle: saline", "value": "155 % of control and 161 % of control and 183 % of control"}, {"measurement": "T/C", "setting": "dose: 1.5 mg/kg/injection, schedule: Q04DX003 (ip), vehicle: water", "value": "163 % of control and 200 % of control"}, {"measurement": "T/C", "setting": "dose: 1.62 mg/kg/injection, schedule: Q04DX003 (ip), vehicle: saline", "value": "163 % of control"}, {"measurement": "T/C", "setting": "dose: 1.8 mg/kg/injection, schedule: Q04DX002 (ip), vehicle: saline", "value": "175 % of control"}, {"measurement": "T/C", "setting": "dose: 1.8 mg/kg/injection, schedule: Q04DX003 (ip), vehicle: water", "value": "174 % of control"}, {"measurement": "T/C", "setting": "dose: 2.0 mg/kg/injection, schedule: Q01DX009 (ip), vehicle: saline with Tween-80", "value": "104 % of control and 120 % of control"}, {"measurement": "T/C", "setting": "dose: 2.0 mg/kg/injection, schedule: Q04DX003 (ip), vehicle: saline", "value": "163 % of control"}, {"measurement": "T/C", "setting": "dose: 2.16 mg/kg/injection, schedule: Q04DX002 (ip), vehicle: saline", "value": "162 % of control"}, {"measurement": "T/C", "setting": "dose: 2.16 mg/kg/injection, schedule: Q04DX003 (ip), vehicle: saline", "value": "155 % of control (2×) and 174 % of control"}, {"measurement": "T/C", "setting": "dose: 2.7 mg/kg/injection, schedule: Q04DX003 (ip), vehicle: saline", "value": "183 % of control and 204 % of control"}, {"measurement": "T/C", "setting": "dose: 3.0 mg/kg/injection, schedule: Q01DX001 (ip), vehicle: saline", "value": "169 % of control"}, {"measurement": "T/C", "setting": "dose: 3.0 mg/kg/injection, schedule: Q04DX002 (ip), vehicle: saline", "value": "212 % of control"}, {"measurement": "T/C", "setting": "dose: 3.0 mg/kg/injection, schedule: Q04DX003 (ip), vehicle: water", "value": "190 % of control and 197 % of control"}, {"measurement": "T/C", "setting": "dose: 3.5 mg/kg/injection, schedule: Q01DX001 (ip), vehicle: carboxymethylcellulose (CMC)", "value": "183 % of control"}, {"measurement": "T/C", "setting": "dose: 3.6 mg/kg/injection, schedule: Q01DX001 (ip), vehicle: water", "value": "175 % of control and 176 % of control"}, {"measurement": "T/C", "setting": "dose: 3.6 mg/kg/injection, schedule: Q04DX002 (ip), vehicle: saline", "value": "159 % of control"}, {"measurement": "T/C", "setting": "dose: 3.6 mg/kg/injection, schedule: Q04DX003 (ip), vehicle: saline", "value": "184 % of control and 220 % of control and 235 % of control"}, {"measurement": "T/C", "setting": "dose: 4.0 mg/kg/injection, schedule: Q01DX001 (ip), vehicle: saline", "value": "156 % of control and 167 % of control"}, {"measurement": "T/C", "setting": "dose: 4.0 mg/kg/injection, schedule: Q04DX003 (ip), vehicle: saline", "value": "150 % of control"}, {"measurement": "T/C", "setting": "dose: 4.4 mg/kg/injection, schedule: Q01DX001 (ip), vehicle: saline", "value": "158 % of control"}, {"measurement": "T/C", "setting": "dose: 4.5 mg/kg/injection, schedule: Q04DX003 (ip), vehicle: saline", "value": "219 % of control"}, {"measurement": "T/C", "setting": "dose: 4.7 mg/kg/injection, schedule: Q01DX001 (ip), vehicle: saline", "value": "174 % of control"}, {"measurement": "T/C", "setting": "dose: 5.0 mg/kg/injection, schedule: Q04DX002 (ip), vehicle: saline", "value": "157 % of control"}, {"measurement": "T/C", "setting": "dose: 5.0 mg/kg/injection, schedule: Q04DX003 (ip), vehicle: water", "value": "228 % of control"}, {"measurement": "T/C", "setting": "dose: 5.3 mg/kg/injection, schedule: Q01DX001 (ip), vehicle: carboxymethylcellulose (CMC)", "value": "191 % of control"}, {"measurement": "T/C", "setting": "dose: 5.4 mg/kg/injection, schedule: Q01DX001 (ip), vehicle: water", "value": "184 % of control and 206 % of control and 216 % of control"}, {"measurement": "T/C", "setting": "dose: 6.0 mg/kg/injection, schedule: Q01DX001 (ip), vehicle: saline", "value": "162 % of control and 166 % of control and 255 % of control"}, {"measurement": "T/C", "setting": "dose: 6.0 mg/kg/injection, schedule: Q04DX002 (ip), vehicle: saline", "value": "120 % of control"}, {"measurement": "T/C", "setting": "dose: 6.7 mg/kg/injection, schedule: Q01DX001 (ip), vehicle: saline", "value": "188 % of control"}, {"measurement": "T/C", "setting": "dose: 7.0 mg/kg/injection, schedule: Q01DX001 (ip), vehicle: saline", "value": "165 % of control"}, {"measurement": "T/C", "setting": "dose: 7.5 mg/kg/injection, schedule: Q04DX003 (ip), vehicle: saline", "value": "122 % of control"}, {"measurement": "T/C", "setting": "dose: 8.0 mg/kg/injection, schedule: Q01DX001 (ip), vehicle: water", "value": "178 % of control and 222 % of control and 280 % of control"}, {"measurement": "T/C", "setting": "dose: 8.3 mg/kg/injection, schedule: Q04DX003 (ip), vehicle: water", "value": "87 % of control"}]}]}
